Measurements published in patent publication US20210355104A1, “ADENOSINE RECEPTOR BINDING COMPOUNDS” (Nikang Therapeuticsm Inc., priority 2018, published 2021).
Values joined by “and” are separate entries in the source; they are usually repeats but may differ in a detail not shown here. Equal entries are not always repeated.

Experiments:
Adenosine A2A receptor [1] = biological target: T1, Adenosine A2A receptor (Homo sapiens, UniProt P29274); test: cAMP assay in 293A cells stably expressing the adenosine A2A receptor (CGS21680 stimulation, HTRF); format: cell-based; parameters: expressed in transfected cells; host or cells: 293A cells (Invitrogen, Cat# R705-07) infected with A2A-expressing lentivirus (custom packaged by Biosettia), puromycin selected; conditions: 293A-A2AR cells, 0.1% BSA
T1 sequence (P29274 whole entry): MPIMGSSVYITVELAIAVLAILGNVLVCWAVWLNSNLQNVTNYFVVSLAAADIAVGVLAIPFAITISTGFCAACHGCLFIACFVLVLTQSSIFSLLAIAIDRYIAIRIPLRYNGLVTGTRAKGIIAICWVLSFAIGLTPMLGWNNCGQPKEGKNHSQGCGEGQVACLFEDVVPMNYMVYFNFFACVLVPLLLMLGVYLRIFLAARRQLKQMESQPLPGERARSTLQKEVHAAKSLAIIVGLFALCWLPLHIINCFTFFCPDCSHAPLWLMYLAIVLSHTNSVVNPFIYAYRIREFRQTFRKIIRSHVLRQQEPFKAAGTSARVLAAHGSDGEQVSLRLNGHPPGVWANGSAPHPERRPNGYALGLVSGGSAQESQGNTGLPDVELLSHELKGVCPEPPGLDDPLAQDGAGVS

[2] = tested on: p-CREB (phosphorylated cAMP response-element binding protein) in human whole blood; test: p-CREB assay in human whole blood by flow cytometry (NECA stimulation, CD4 staining); format: cell-based; conditions: Homo sapiens
Outline: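 Fresh human whole blood preincubated 1 h at room temperature with compounds (11-point 1:3 series from 30 uM) plus adenosine deaminase, then stimulated 30 min with NECA and Rolipram (10× additions of 50 uM stocks). Cells lysed/fixed, permeabilised, stained for p-CREB and CD4, read by flow cytometry.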

Adenosine A2A receptor [3] = biological target: T1, Adenosine A2A receptor; test: Adenosine A2A receptor competitive binding assay (Tag-lite HTRF); conditions: Tag-lite adenosine A2A receptor ligand binding
Outline: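 Compound displacement of a red fluorescent antagonist tracer (added at 60 nM stock) from donor-labelled, pre-transfected human A2A cells was read by HTRF after 2 h at room temperature; compound dilutions contained 0.6% DMSO.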

[4] = 8 nM CGS, values separated by / are repeat determinations, read-out: cAMP (nM) 0.1% BSA, 8 nM CGS
[5] = 1 uM CGS, values separated by / are repeat determinations, read-out: cAMP (nM) 0.1% BSA, 1 uM CGS
[6] = values separated by / are repeat determinations
[7] = 2 h room temperature, values separated by / are repeat determinations
[8] = 8 nM CGS, read-out: cAMP (nM) 0.1% BSA, 8 nM CGS
[9] = 1 uM CGS, read-out: cAMP (nM) 0.1% BSA, 1 uM CGS

SMILES | IC50 (Adenosine A2A receptor [1]; [4]) | IC50 (Adenosine A2A receptor [1]; [5]) | IC50 [2, 6] [nM] | IC50 (Adenosine A2A receptor [3]; [7]) | IC50 (Adenosine A2A receptor [1]; [8]) | IC50 [2] [nM] | IC50 (Adenosine A2A receptor [3]; HTRF) | IC50 (Adenosine A2A receptor [1]; [9])
CNS(=O)(=O)NCCOc1nc(N)nc(-c2ccccc2)c1-c1cc(C)nc(C(F)(F)F)c1 [Example 121] | 1.5 nM and 1.4 nM | 55 nM and 139 nM | 478 | 3.9 nM | – | – | – | –
CCc1c(COc2nc(N)nc(-c3ccc(F)cc3)c2-c2cc(C)nc(C(F)F)c2)nnn1CC [Example 135, 4-((1,5-diethyl-1H-1,2,3-triazol-4-yl)methoxy)-5-(2-(difluoromethyl)-6-methylpyridin-4-yl)-6-(4-fluorophenyl)pyrimidin-2-amine] | 3.1 nM and 2.6 nM | 77 nM | 93.2 | 1.2 nM and 4.3 nM | – | – | – | –
CCc1c(COc2nc(N)nc(-c3ccc(F)cc3)c2-c2cc(C)nc(C(F)F)c2)nnn1C [Example 136, 5-(2-(difluoromethyl)-6-methylpyridin-4-yl)-4-((5-ethyl-1-methyl-1H-1,2,3-triazol-4-yl)methoxy)-6-(4-fluorophenyl)pyrimidin-2-amine] | 2.3 nM | 29 nM and 27 nM | 15.8 | 0.6 nM and 1.1 nM | – | – | – | –

Now from value to molecule:

IC50 (Adenosine A2A receptor [1]; [4]) | IC50 (Adenosine A2A receptor [1]; [5]) | IC50 [2, 6] [nM] | IC50 (Adenosine A2A receptor [3]; [7]) | IC50 (Adenosine A2A receptor [1]; [8]) | IC50 [2] [nM] | IC50 (Adenosine A2A receptor [3]; HTRF) | IC50 (Adenosine A2A receptor [1]; [9]) | SMILES
0.88 nM and 0.69 nM | 35 nM and 53 nM | 63 | 1.8 nM | – | – | – | – | Cc1cc(-c2c(OCCn3ccccc3=O)nc(N)nc2-c2ccc(F)cc2)cc(C(F)F)n1 [Example 122, 1-(2-((2-amino-5-(2-(difluoromethyl)-6-methylpyridin-4-yl)-6-(4-fluorophenyl)pyrimidin-4-yl)oxy)ethyl)pyridin-2(1H)-one]
1.3 nM | 11 nM | 41.6 | 1.4 nM and 4.2 nM | – | – | – | – | Cc1cc(-c2c(OCCN(C)c3cccc(OCCO)n3)nc(N)nc2-c2ccc(F)cc2)cc(C(F)F)n1 [Example 154, 2-((6-((2-((2-amino-5-(2-(difluoromethyl)-6-methylpyridin-4-yl)-6-(4-fluorophenyl)pyrimidin-4-yl)oxy)ethyl)(methyl)amino)pyridin-2-yl)oxy)ethan-1-ol]
– | – | – | – | 24 nM | 456 | 13 nM | – | Cc1cc(-c2c(OCc3nccn3CCC(=O)O)nc(N)nc2-c2ccc(F)cc2)cc(C(F)F)n1 [Example 204, 3-(2-(((2-amino-5-(2-(difluoromethyl)-6-methylpyridin-4-yl)-6-(4-fluorophenyl)pyrimidin-4-yl)oxy)methyl)-1H-imidazol-1-yl)propanoic acid]
– | – | – | – | 1.6 nM and 2.4 nM | 125 | 1.9 nM and 4.2 nM | 84 nM and 97 nM | Cc1cc(-c2c(OCc3nccn3C(C)CO)nc(N)nc2-c2ccc(F)cc2)cc(C(F)F)n1 (stereo not drawn) [Example 209, 2-(2-(((2-amino-5-(2-(difluoromethyl)-6-methylpyridin-4-yl)-6-(4-fluorophenyl)pyrimidin-4-yl)oxy)methyl)-1H-imidazol-1-yl)propan-1-ol]
– | – | – | – | – | 15.1 | 18.1 nM | 136 nM and 200 nM and 176 nM | Cc1cc(-c2c(OCc3cccc(C(C)(C)O)n3)nc(N)nc2-c2ccc(F)cc2)cc(C(F)F)n1 [Example 225]
